Laboratory results published in ChEMBL document CHEMBL1157840, “Synthesis and the selective antifungal activity of 5,6,7,8-tetrahydroimidazo[1,2-a]pyridine derivatives” (Eur J Med Chem, 2010).
In brackets after ≈: the same amount, converted by molar mass.

Tests used:
Candida albicans [1] = assay: Antifungal activity against Candida albicans clinical isolate after 24 hrs by broth microdilution assay; assay type: functional
Candida albicans [2] = assay: Antifungal activity against Candida albicans ATCC 90028 after 24 hrs by broth microdilution assay; assay type: functional; details: ATCC 90028, 24 h
Nakaseomyces glabratus [3] = assay: Antifungal activity against Candida glabrata clinical isolate 1 after 24 hrs by broth microdilution assay; assay type: functional; details: isolate 1, 24 h
Cyberlindnera jadinii = assay: Antifungal activity against Candida utilis NRRL Y-900 after 24 hrs by broth microdilution assay; assay type: functional; details: Williopsis jadinii, NRRL Y-900, 24 h
Candida tropicalis = assay: Antifungal activity against Candida tropicalis NRRL Y-12968 after 24 hrs by broth microdilution assay; assay type: functional; details: NRRL Y-12968, 24 h
Pichia kudriavzevii = assay: Antifungal activity against Candida krusei NRRL Y-7179 after 24 hrs by broth microdilution assay; assay type: functional; details: NRRL Y-7179, 24 h
[Candida] zeylanoides = Antifungal activity against Candida zeylanoides NRRL Y-1774 after 24 hrs by broth microdilution assay; assay type: functional; details: Dujonia zeylanoides, NRRL Y-1774, 24 h
Candida parapsilosis = assay: Antifungal activity against Candida parapsilosis NRRL Y-12696 after 24 hrs by broth microdilution assay; assay type: functional; details: Lodderomyces parapsilosis, NRRL Y-12696, 24 h
Candida albicans [4] = assay: Antifungal activity against Candida albicans NRRL Y-12983 after 24 hrs by broth microdilution assay; assay type: functional; details: NRRL Y-12983, 24 h
Nakaseomyces glabratus [5] = assay: Antifungal activity against Candida glabrata clinical isolate 2 after 24 hrs by broth microdilution assay; assay type: functional
SK-MEL = assay: Cytotoxicity against human SK-MEL cells up to 25 ug/ml after 48 hrs by neutral red assay; assay type: cell-based
BT-549 = assay: Cytotoxicity against human BT549 cells up to 25 ug/ml after 48 hrs by neutral red assay; assay type: cell-based; details: bt-549, 48 h
SK-OV-3 = assay: Cytotoxicity against human SKOV3 cells up to 25 ug/ml after 48 hrs by neutral red assay; assay type: cell-based; details: sk-ov-3, 48 h
Vero = assay: Cytotoxicity against african green monkey Vero cells up to 25 ug/ml after 48 hrs by neutral red assay; assay type: cell-based; details: chlorocebus sabaeus
[6] = Cytotoxicity against african pig LLC-PK11 up to 25 ug/ml after 48 hrs by neutral red assay; set-up: species or system Sus scrofa

SMILES	MIC (Candida albicans [1]) [µg/mL]	MIC (Candida albicans [2]) [µg/mL]	MIC (Nakaseomyces glabratus [3]) [µg/mL]	MIC (Cyberlindnera jadinii) [µg/mL]	MIC (Candida tropicalis) [µg/mL]	MIC (Pichia kudriavzevii) [µg/mL]	MIC ([Candida] zeylanoides) [µg/mL]	MIC (Candida parapsilosis) [µg/mL]	MIC (Candida albicans [4]) [µg/mL]	MIC (Nakaseomyces glabratus [5]) [µg/mL]	Activity (SK-MEL)	Activity (BT-549)	Activity (SK-OV-3)	Activity (Vero)	Activity [6]
Cc1ccc(/C=N/NC(=O)c2cn3c(n2)CCCC3)cc1	0.032 (≈ 0.113 µM)	> 0.25	> 0.25	> 0.25	0.125 (≈ 0.443 µM)	> 0.25	> 0.25	0.5 (≈ 1.77 µM)	> 0.25	> 0.25	Non-toxic	Non-toxic	Non-toxic	Non-toxic	Non-toxic
O=C(N/N=C/c1ccc(Cl)cc1)c1cn2c(n1)CCCC2	0.125 (≈ 0.413 µM)	0.5 (≈ 1.65 µM)	> 0.25	> 0.25	> 0.25	> 0.25	> 0.25	0.5 (≈ 1.65 µM)	0.5 (≈ 1.65 µM)	0.125 (≈ 0.413 µM)	Non-toxic	Non-toxic	Non-toxic	Non-toxic	Non-toxic
COC1=CC(=O)C[C@@H](C)[C@]12Oc1c(Cl)c(OC)cc(OC)c1C2=O [GRISEOFULVIN]	0.25 (≈ 0.709 µM)	–	0.25 (≈ 0.709 µM)	0.5 (≈ 1.42 µM)	0.125 (≈ 0.354 µM)	0.25 (≈ 0.709 µM)	0.5 (≈ 1.42 µM)	0.5 (≈ 1.42 µM)	–	0.125 (≈ 0.354 µM)	Non-toxic	Non-toxic	Non-toxic	Non-toxic	Non-toxic
O=C(N/N=C/c1ccc2c(c1)OCO2)c1cn2c(n1)CCCC2	0.063 (≈ 0.202 µM)	> 0.25	> 0.25	0.125 (≈ 0.4 µM)	0.125 (≈ 0.4 µM)	> 0.25	> 0.25	> 0.25	> 0.25	> 0.25	Non-toxic	Non-toxic	Non-toxic	Non-toxic	Non-toxic
Clc1ccccc1C(c1ccccc1)(c1ccccc1)n1ccnc1 [CLOTRIMAZOLE]	< 0.08	< 0.08	< 0.08	< 0.08	0.032 (≈ 0.0928 µM)	< 0.08	0.125 (≈ 0.362 µM)	< 0.08	< 0.08	< 0.08	Non-toxic	Non-toxic	Non-toxic	Non-toxic	Non-toxic
CC(C)c1ccc(/C=N/NC(=O)c2cn3c(n2)CCCC3)cc1	0.125 (≈ 0.403 µM)	> 0.25	> 0.25	> 0.25	0.125 (≈ 0.403 µM)	> 0.25	> 0.25	> 0.25	> 0.25	0.5 (≈ 1.61 µM)	Non-toxic	Non-toxic	Non-toxic	Non-toxic	Non-toxic
CC(=O)N1CCN(c2ccc(OCC3COC(Cn4ccnc4)(c4ccc(Cl)cc4Cl)O3)cc2)CC1 (stereo not drawn) [KETOCONAZOLE]	0.063 (≈ 0.119 µM)	0.063 (≈ 0.119 µM)	0.125 (≈ 0.235 µM)	0.125 (≈ 0.235 µM)	0.125 (≈ 0.235 µM)	0.125 (≈ 0.235 µM)	0.5 (≈ 0.941 µM)	0.032 (≈ 0.0602 µM)	0.032 (≈ 0.0602 µM)	0.032 (≈ 0.0602 µM)	Non-toxic	Non-toxic	Non-toxic	Non-toxic	Non-toxic
N#Cc1ccc(/C=N/NC(=O)c2cn3c(n2)CCCC3)cc1	0.032 (≈ 0.109 µM)	0.063 (≈ 0.215 µM)	0.032 (≈ 0.109 µM)	0.032 (≈ 0.109 µM)	< 0.016	< 0.016	0.032 (≈ 0.109 µM)	0.032 (≈ 0.109 µM)	0.032 (≈ 0.109 µM)	0.032 (≈ 0.109 µM)	Non-toxic	Non-toxic	Non-toxic	Non-toxic	Non-toxic
CN(C)c1ccc(/C=N/NC(=O)c2cn3c(n2)CCCC3)cc1	0.125 (≈ 0.401 µM)	> 0.25	> 0.25	> 0.25	0.125 (≈ 0.401 µM)	> 0.25	> 0.25	> 0.25	> 0.25	> 0.25	Non-toxic	Non-toxic	Non-toxic	Non-toxic	Non-toxic
O=C(N/N=C/c1ccc([N+](=O)[O-])cc1)c1cn2c(n1)CCCC2	0.125 (≈ 0.399 µM)	0.5 (≈ 1.6 µM)	0.5 (≈ 1.6 µM)	0.5 (≈ 1.6 µM)	0.25 (≈ 0.798 µM)	0.5 (≈ 1.6 µM)	0.25 (≈ 0.798 µM)	0.25 (≈ 0.798 µM)	0.25 (≈ 0.798 µM)	0.25 (≈ 0.798 µM)	Non-toxic	Non-toxic	Non-toxic	Non-toxic	Non-toxic
O=C(N/N=C/c1ccc(Br)cc1)c1cn2c(n1)CCCC2	1 (≈ 2.88 µM)	0.5 (≈ 1.44 µM)	0.5 (≈ 1.44 µM)	1 (≈ 2.88 µM)	0.5 (≈ 1.44 µM)	0.25 (≈ 0.72 µM)	1 (≈ 2.88 µM)	1 (≈ 2.88 µM)	0.125 (≈ 0.36 µM)	0.25 (≈ 0.72 µM)	Non-toxic	Non-toxic	Non-toxic	Non-toxic	Non-toxic
